Experimental findings from patent US12071425B2 (Genentech, Inc., priority 2018, dated 2024) are described below.

Counter-ions that a name gives are not always drawn.

As usually defined, the IC50 is the point on the concentration scale where inhibition reaches its midpoint.

Sequence of kinase domain of IRE1 alpha (His-tagged kinase dead construct KR, AA G547-L977, D688N) (O75460 547-977 D688N): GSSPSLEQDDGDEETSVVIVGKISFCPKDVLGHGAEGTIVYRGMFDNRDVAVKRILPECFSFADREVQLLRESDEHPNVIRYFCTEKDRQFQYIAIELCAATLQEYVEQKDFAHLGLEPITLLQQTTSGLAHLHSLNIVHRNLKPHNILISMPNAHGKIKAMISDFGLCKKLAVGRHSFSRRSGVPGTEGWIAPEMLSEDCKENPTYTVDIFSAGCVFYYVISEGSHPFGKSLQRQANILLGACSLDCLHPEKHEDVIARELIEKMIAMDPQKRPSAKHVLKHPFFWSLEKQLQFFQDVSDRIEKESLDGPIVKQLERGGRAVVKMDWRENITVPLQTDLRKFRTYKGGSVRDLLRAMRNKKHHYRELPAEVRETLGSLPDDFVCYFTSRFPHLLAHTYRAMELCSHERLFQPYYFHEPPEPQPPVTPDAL

In the experiment the target is kinase domain of IRE1 alpha (His-tagged kinase dead construct KR, AA G547-L977, D688N) (Homo sapiens (Human), UniProt O75460, D688N). Description: IRE1α TR-FRET competition binding assay. The following applies: competition with Kinase Tracer 236, 0.1 μM; one hour at room temperature. In a few lines:
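Compound displacement of an ATP-site fluorescent tracer (0.1 μM final) measured by TR-FRET after 1 h at room temperature. Protein, a His-tagged D688N kinase/RNase construct from Sf9 cells (0.006 μM final), was pre-bound 1 h at 4° C to Eu anti-His antibody (0.002 μM) in pH 7.5 HEPES buffer.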
(In general: In TR-FRET formats the signal depends on donor and acceptor labels being close together.)
As for `Cn1cnc(S(=O)(=O)Nc2ccc(Oc3ncccc3-c3ccnc(N[C@H]4CCCNC4)n3)c(F)c2F)c1` [Compound 221, (S)-N-(2,3-difluoro-4-((3-(2-(piperidin-3-ylamino)pyrimidin-4-yl)pyridin-2-yl)oxy)phenyl)-1-methyl-1H-imidazole-4-sulfonamide], the IC50 came out at 380 nM. That is a sub-micromolar value. In the case of `O=S(=O)(CCC1CCCCC1)Nc1ccc(Oc2ncccc2-c2ccnc(N[C@H]3CCCNC3)n2)c(F)c1F` [Compound 215, (S)-2-cyclohexyl-N-(2,3-difluoro-4-((3-(2-(piperidin-3-ylamino)pyrimidin-4-yl)pyridin-2-yl)oxy)phenyl)ethane-1-sulfonamide], the IC50 was determined as 11 nM. This IC50 is about 35-fold lower than that of the compound before.

Take `COCCS(=O)(=O)Nc1c(F)cc(Oc2ncccc2-c2ccnc(N[C@@H]3CNC[C@@H](F)C3)n2)c(F)c1F` [Compound 252, 2-Methoxy-N-(2,3,6-trifluoro-4-((3-(2-(((3S,5S)-5-fluoropiperidin-3-yl)amino)pyrimidin-4-yl)pyridin-2-yl)oxy)phenyl)ethane-1-sulfonamide]: the IC50 came to 14 nM.

With `O=S(=O)(Nc1c(F)cc(Oc2ncccc2-c2ccnc(N[C@@H]3CNC[C@@H](F)C3)n2)c(F)c1F)C1CCCC1` [Compound 369, N-(2,3,6-Trifluoro-4-((3-(2-(((3S,5S)-5-fluoropiperidin-3-yl)amino)pyrimidin-4-yl)pyridin-2-yl)oxy)phenyl)cyclopentanesulfonamide], the IC50 was 1.2 nM. As for `O=C1CC[C@H](Nc2nccc(-c3cccnc3Oc3ccc(NS(=O)(=O)Cc4ccccc4)c(F)c3F)n2)CN1` [Compound 181, (S)-N-(2,3-difluoro-4-((3-(2-((6-oxopiperidin-3-yl)amino)pyrimidin-4-yl)pyridin-2-yl)oxy)phenyl)-1-phenylmethanesulfonamide], the IC50 is 36 nM.

As to `O=S(=O)(Cc1ccccc1)Nc1c(F)cc(Oc2ncccc2-c2ccnc(N[C@@H]3CNC[C@H](F)C3)n2)c(F)c1F` [Compound 259, 1-Phenyl-N-(2,3,6-trifluoro-4-((3-(2-(((3S,5R)-5-fluoropiperidin-3-yl)amino)pyrimidin-4-yl)pyridin-2-yl)oxy)phenyl)methanesulfonamide], the concentration for half-maximal inhibition (IC50) amounted to 2 nM. Take `O=S(=O)(Cc1cccc(Cl)c1)Nc1ccc(Oc2ncccc2-c2ccnc(N[C@H]3CCCNC3)n2)c(F)c1F` [Compound 225, (S)-1-(3-chlorophenyl)-N-(2,3-difluoro-4-((3-(2-(piperidin-3-ylamino)pyrimidin-4-yl)pyridin-2-yl)oxy)phenyl)methanesulfonamide]: the IC50 came out at 6.1 nM. Consider `Cc1ccc(CS(=O)(=O)Nc2cc(C)c(Oc3ncccc3-c3ccnc(N[C@@H]4CNC[C@@](C)(F)C4)n3)c(F)c2F)cc1` [Compound 297, N-(2,3-Difluoro-4-((3-(2-(((3S,5S)-5-fluoro-5-methylpiperidin-3-yl)amino)pyrimidin-4-yl)pyridin-2-yl)oxy)-5-methylphenyl)-1-(p-tolyl)methanesulfonamide], for which the IC50 came to 0.28 nM. To `CC(F)(F)CCS(=O)(=O)Nc1ccc(Oc2ncccc2-c2ccnc(N[C@H]3CCCNC3)n2)c(F)c1F` [Compound 149, (S)-N-(2,3-difluoro-4-((3-(2-(piperidin-3-ylamino)pyrimidin-4-yl)pyridin-2-yl)oxy)phenyl)-3,3-difluorobutane-1-sulfonamide hydrochloride] belongs 8.7 nM; to `O=S(=O)(Cc1ccc(C(F)F)cc1)Nc1c(F)cc(Oc2ncccc2-c2ccnc(N[C@@H]3CNC[C@@H](F)C3)n2)c(F)c1F` [Compound 371, 1-(4-(Difluoromethyl)phenyl)-N-(2,3,6-trifluoro-4-((3-(2-(((3S,5S)-5-fluoropiperidin-3-yl)amino)pyrimidin-4-yl)pyridin-2-yl)oxy)phenyl)methanesulfonamide], 0.3 nM; to `Cc1cc(NS(=O)(=O)Cc2ccccc2)c(F)c(F)c1Oc1ncccc1-c1ccnc(N[C@@H]2CNC[C@@H](F)C2)n1` [Compound 178, N-(2,3-difluoro-4-((3-(2-(((3S,5S)-5-fluoro-3-piperidyl)amino)pyrimidin-4-yl)-2-pyridyl)oxy)-5-methyl-phenyl)-1-phenyl-methanesulfonamide], 3.5 nM.
